Each structure is given as a SMILES string.

For one data set, the system named is IR. Briefly: Phosphorylation of insulin receptor in L6 myotubes (immunoprecipitation, western blot). As to conditions: 0.1–10 nM, 15 min, all concentrations tested. It is filed as cell-based, rat. The procedure:
(§1) For in vitro cell culture experiments, after serum starvation for 18 h, myotubes were treated with various concentrations of quercetin or isorhamnetin (0.1–10 nM) for 15 min; DMSO (final 0.1%) was used as a vehicle control. As positive controls, 100 nM insulin, 1 mM AICAR, 10 nM leptin, or 100 ng/mL IL-15 were used for insulin, AMPK, JAK2/STAT, or JAK3/STAT signalling pathways, respectively. Cells were treated with insulin or AICAR for 15 min, leptin for 60 min, or IL-15 for 24 h. Whole protein and plasma membrane fractions were prepared from myotubes, as previously described. For in vivo experiment, plasma membrane fraction and tissue lysate of soleus muscle were prepared.
(§2) Translocation of GLUT4 to the plasma membrane, as well as expression and phosphorylation levels of GLUT4-related regulators were estimated by western blot analysis. Briefly, equal amounts of proteins were separated by sodium dodecyl sulfate-polyacrylamide gel electrophoresis (SDS-PAGE). […] Specific immune complexes were developed using ImmunoStar® LD and detected with an ATTO Light-Capture II Western Blotting Detection System. Individual band density was calculated by ImageJ and normalized to the control. […]
Background: In western blotting, separated proteins are transferred to a membrane and probed.

A further data set relates to Akt. Nature of the data set: Phosphorylation of Akt in L6 myotubes (western blot). In kind it is cell-based, rat. As to conditions: 15 min; for Akt phosphorylation at Ser473: higher concentrations (1 μM and 10 μM). Here is the method: as §1
Translocation of GLUT4 to the plasma membrane, as well as expression and phosphorylation levels of GLUT4-related regulators were estimated by western blot analysis. Briefly, equal amounts of proteins were separated by sodium dodecyl sulfate-polyacrylamide gel electrophoresis (SDS-PAGE). Separated proteins were transferred onto a polyvinylidene fluoride membrane and nonspecific binding sites were blocked using either Blocking One (to detect unphosphorylated proteins) or Blocking One-P (to detect phosphoproteins). The membrane was incubated overnight with an appropriate primary antibody for GLUT4 (1:5000), IR (1:10000), p-IRS1 (1:5000), IRS1 (1:5000), p-PI3K (1:5000), PI3K (1:10000), p-Akt (1:5000), Akt (1:10000), p-AMPKα (1:5000), AMPKα (1:10000), p-ACC (1:5000), ACC (1:10000), p-LKB1 (1:5000), LKB1 (1:10000), p-JAK2 (1:5000), JAK2 (1:5000), p-JAK3 (1:5000), JAK3 (1:10000), p-STAT1 (1:5000), STAT1 (1:10000), p-STAT3 (1:5000), STAT3 (1:10000), p-STAT5 (1:5000), STAT5 (1:10000), or β-actin (1:20000), and subsequently treated with the corresponding horseradish peroxidase-conjugated secondary antibody (1:50000) for 1 h. Specific immune complexes were developed using ImmunoStar® LD and detected with an ATTO Light-Capture II Western Blotting Detection System. Individual band density was calculated by ImageJ and normalized to the control.
42 after morphological analysis of differentiation status using phase-contrast microscopy.
43 Preparation of whole protein and plasma membrane fractions After serum starvation
44 for 18 h, myotubes were treated with various concentrations of quercetin or isorhamnetin (1–
45 10 μM) for 15 min; DMSO (final 0.1%) was used as a vehicle control. As positive controls,
46 100 nM insulin, 1 mM AICAR, or 10 nM leptin were used for insulin, AMPK or JAK2/STAT
47 signalling pathways, respectively. Cells were treated with insulin or AICAR for 15 min, or
48 leptin for 60 min. […]
(§3) 59 complexes were developed using ImmunoStar® LD and detected with an ATTO Light-Capture
(§4) 60 Ⅱ Western Blotting Detection System. Individual band density was calculated by ImageJ and […]

The next data set concerns PKCζ/λ. Briefly: Phosphorylation of PKCζ/λ in L6 myotubes. As to conditions: 10 nM, data not shown. In kind it is cell-based, rat.
In the next data set the test system is ACC. Nature of the data set: Phosphorylation of ACC in L6 myotubes (western blot). It is filed as cell-based, rat. The settings on record: 0.1 nM or 1 nM, 15 min. Here is the method:
as §1
(§5) Translocation of GLUT4 to the plasma membrane, as well as expression and phosphorylation levels of GLUT4-related regulators were estimated by western blot analysis. Briefly, equal amounts of proteins were separated by sodium dodecyl sulfate-polyacrylamide gel electrophoresis (SDS-PAGE). […] Specific immune complexes were developed using ImmunoStar® LD and detected with an ATTO Light-Capture II Western Blotting Detection System. Individual band density was calculated by ImageJ and normalized to the control.

Another data set has as its system IRS1. Nature of the data set: Phosphorylation of IRS1 in L6 myotubes (western blot). It is filed as cell-based, rat. As to conditions: 0.1–10 nM, 15 min. The procedure:
as §1, §5

The subject of the next data set is JAK2. Briefly: Phosphorylation of JAK2 in L6 myotubes (western blot). It is filed as cell-based, rat. As to conditions: 15 min; for phosphorylation of JAK2: higher concentrations (1 μM and 10 μM). Here is the method: as §1
as §2, with “(SDS-PAGE). Separated proteins were transferred onto a polyvinylidene fluoride membrane and nonspecific binding sites were blocked using either Blocking One (to detect unphosphorylated proteins) or Blocking One-P (to detect phosphoproteins).” for “(SDS-PAGE).”
as §3, §4

For data set [1] the following is noted: cited from earlier work.
A further data set has as its system JAK3. Briefly: Phosphorylation of JAK3 in L6 myotubes (western blot). In kind it is cell-based, rat. The settings on record: physiological concentration range (0.1–10 nM), 15 min. The procedure:
as §1, §5

The subject of a further data set is STAT5. Briefly: Phosphorylation of STAT5 in L6 myotubes (western blot). The settings on record: 1 nM, 15 min. In kind it is cell-based, rat. Here is the method: as §1, §5
In a further data set the test system is STAT3. Briefly: Phosphorylation of STAT3 in L6 myotubes (western blot). In kind it is cell-based, rat. The settings on record: 10 nM, 15 min. The procedure:
as §1, §5

Another data set has as its system STAT1. Nature of the data set: Phosphorylation of STAT1 in L6 myotubes (western blot). It is filed as cell-based, rat. As to conditions: 0.1–10 nM, 15 min. The procedure:
as §1, §5

In the case of `O=c1c(O)c(-c2ccc(O)c(O)c2)oc2cc(O)cc(O)c12` [quercetin, 3,3′,4′,5,7-pentahydroxy flavone], the “phosphorylation of insulin receptors (IRs)” value in the data set with IR is recorded as “failed to activate”. Also, in the data set on Akt (10 nM), the “Akt phosphorylation at Thr308 and Ser473” value was “increased Akt phosphorylation”. The “Akt phosphorylation at Ser473” value in the data set on Akt is reported as “significantly increased Akt phosphorylation”. Further, the “phosphorylation of PKCζ/λ” value with PKCζ/λ is “phosphorylated”. In the data set on ACC, the “phosphorylation of ACC” value is reported as “phosphorylation was increased”. Also, in the data set on IRS1, the “phosphorylation of IRS1” value was “dose-dependently promoted”. For the same molecule, in the data set on JAK2, the “phosphorylation of JAK2” value is given as “induced phosphorylation of JAK2”. The “basal concentrations in the blood” value in data set [1] (humans, after consumption of 80–100 mg of quercetin equivalent) is recorded as 300 to 750 nM. In data set [1] (in humans), the absorption rate is listed as 9–20%.

Turning to `COc1cc(-c2oc3cc(O)cc(O)c3c(=O)c2O)ccc1O` [isorhamnetin, 3′-O-methyl quercetin], the “phosphorylation of insulin receptors (IRs)” value in the data set with IR is given as “failed to activate”. Besides, in the data set with JAK3, the JAK3 phosphorylation entry is on record as “effectively promoted”. In addition, the Akt phosphorylation result with Akt (0.1–10 nM) was “did not affect Akt phosphorylation”. The “Akt phosphorylation at Ser473” value with Akt was “significantly increased Akt phosphorylation”. Moreover, the “phosphorylation of STAT5” value with STAT5 was “increased”. Moreover, the “phosphorylation of STAT3” value in the data set with STAT3 is listed as “increased”. For the same molecule, the “phosphorylation of JAK2” value in the data set on JAK2 was “induced phosphorylation of JAK2”. Besides, in the data set on JAK2 (physiological concentration range (0.1–10 nM)), the JAK2 phosphorylation entry is on record as “effectively promoted”. Also, the “phosphorylation of STAT1” value with STAT1 was “but not STAT1”.

These data come from paper PMC6389993, “Quercetin and its metabolite isorhamnetin promote glucose uptake through different signalling pathways in myotubes” (Scientific Reports, 2019).
